# Key:
# Experiment in all cases: Kinase panel, CaNDY 1 µM
# Type in all cases: biochemical
# Conditions in all cases: CaNDY 1 µM relative to DMSO
# [1] = biological target: T1, JNK3 (Homo sapiens, UniProt P53779)
# T1 construct: purchased Carna Biosciences
# Procedure, shortened: (§1)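 Baculovirus-expressed human kinases (full length, amino-terminal GST, glutathione-Sepharose purified) were incubated with compound for 1 h at RT in 1% DMSO. Phosphorylated and unphosphorylated substrate were resolved by off-chip mobility shift to give percent inhibition.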
# [2] = biological target: T2, FGFR1 (Homo sapiens, UniProt P11362)
# T2 construct: purchased Carna Biosciences
# Procedure, shortened: as §1
# [3] = biological target: T3, TAK1-TAB1_Cascade (Homo sapiens, UniProt O43318)
# T3 construct: purchased Carna Biosciences
# Procedure, shortened: as §1
# [4] = biological target: T4, EML4-ALK (Homo sapiens, UniProt Q9UM73)
# T4 construct: purchased Carna Biosciences
# Procedure, shortened: as §1
# [5] = biological target: T5, MRCKβ (Homo sapiens, UniProt Q9Y5S2)
# T5 construct: purchased Carna Biosciences
# Procedure, shortened: as §1
# [6] = biological target: T6, MST3 (Homo sapiens, UniProt Q9Y6E0)
# T6 construct: purchased Carna Biosciences
# Procedure, shortened: as §1
# [7] = biological target: T7, SRPK1 (Homo sapiens, UniProt Q96SB4)
# T7 construct: purchased Carna Biosciences
# Procedure, shortened: as §1
# [8] = biological target: T8, MST4 (Homo sapiens, UniProt Q9P289)
# T8 construct: purchased Carna Biosciences
# Procedure, shortened: as §1
# [9] = biological target: T9, FGR (Homo sapiens, UniProt P09769)
# T9 construct: purchased Carna Biosciences
# Procedure, shortened: as §1
# [10] = biological target: T10, NEK1 (Homo sapiens, UniProt Q96PY6)
# T10 construct: purchased Carna Biosciences
# Procedure, shortened: as §1
# [11] = biological target: T11, MLK3_Cascade (Homo sapiens, UniProt Q16584)
# T11 construct: purchased Carna Biosciences
# Procedure, shortened: as §1
# [12] = biological target: T12, HCK (Homo sapiens, UniProt P08631)
# T12 construct: purchased Carna Biosciences
# Procedure, shortened: as §1
# [13] = biological target: T13, HIPK1 (Homo sapiens, UniProt Q86Z02)
# T13 construct: purchased Carna Biosciences
# Procedure, shortened: as §1
# [14] = biological target: T14, RSK2 (Homo sapiens, UniProt P51812)
# T14 construct: purchased Carna Biosciences
# Procedure, shortened: as §1
# [15] = biological target: T15, AMPKα2/β1/γ1 (Homo sapiens, UniProt P54646)
# T15 construct: purchased Carna Biosciences
# Procedure, shortened: as §1
# [16] = biological target: T16, CGK2 (Homo sapiens, UniProt Q13237)
# T16 construct: purchased Carna Biosciences
# Procedure, shortened: as §1
# [17] = biological target: T17, NDR1 (Homo sapiens, UniProt Q15208)
# T17 construct: purchased Carna Biosciences
# Procedure, shortened: as §1
# [18] = biological target: T18, COT_Cascade (Homo sapiens, UniProt P41279)
# T18 construct: purchased Carna Biosciences
# Procedure, shortened: as §1
# [19] = biological target: T19, EPHB2 (Homo sapiens, UniProt P29323)
# T19 construct: purchased Carna Biosciences
# Procedure, shortened: as §1
# [20] = biological target: T20, AurA (Homo sapiens, UniProt O14965)
# T20 construct: purchased Carna Biosciences
# Procedure, shortened: as §1
# [21] = biological target: T21, IGF1R (Homo sapiens, UniProt P08069)
# T21 construct: purchased Carna Biosciences
# Procedure, shortened: as §1
# [22] = biological target: T22, BRAF_Cascade (Homo sapiens, UniProt P15056)
# T22 construct: purchased Carna Biosciences
# Procedure, shortened: as §1
# [23] = biological target: T23, PASK (Homo sapiens, UniProt Q96RG2)
# T23 construct: purchased Carna Biosciences
# Procedure, shortened: as §1
# [24] = biological target: T24, MET (Homo sapiens, UniProt P08581)
# T24 construct: purchased Carna Biosciences
# Procedure, shortened: as §1
# [25] = biological target: T25, GSK3β (Homo sapiens, UniProt P49841)
# T25 construct: purchased Carna Biosciences
# Procedure, shortened: as §1
# [26] = biological target: T26, RSK3 (Homo sapiens, UniProt Q15349)
# T26 construct: purchased Carna Biosciences
# Procedure, shortened: as §1
# [27] = biological target: T27, AKT3 (Homo sapiens, UniProt Q9Y243)
# T27 construct: purchased Carna Biosciences
# Procedure, shortened: as §1
# [28] = biological target: T28, NuaK2 (Homo sapiens, UniProt Q9H093)
# T28 construct: purchased Carna Biosciences
# Procedure, shortened: as §1
# [29] = biological target: T29, CaMK2α (Homo sapiens, UniProt Q9UQM7)
# T29 construct: purchased Carna Biosciences
# Procedure, shortened: as §1
# [30] = biological target: T30, HIPK2 (Homo sapiens, UniProt Q9H2X6)
# T30 construct: purchased Carna Biosciences
# Procedure, shortened: as §1
# [31] = biological target: T31, MNK1 (Homo sapiens, UniProt Q9BUB5)
# T31 construct: purchased Carna Biosciences
# Procedure, shortened: as §1
# [32] = biological target: T32, PIM3 (Homo sapiens, UniProt Q86V86)
# T32 construct: purchased Carna Biosciences
# Procedure, shortened: as §1
# [33] = biological target: T33, CDC7/ASK (Homo sapiens, UniProt O00311)
# T33 construct: purchased Carna Biosciences
# Procedure, shortened: as §1
# [34] = biological target: T34, MAP3K3_Cascade (Homo sapiens, UniProt Q99759)
# T34 construct: purchased Carna Biosciences
# Procedure, shortened: as §1
# [35] = biological target: T35, MER (Homo sapiens, UniProt Q12866)
# T35 construct: purchased Carna Biosciences
# Procedure, shortened: as §1
# [36] = biological target: T36, BRSK2 (Homo sapiens, UniProt Q8IWQ3)
# T36 construct: purchased Carna Biosciences
# Procedure, shortened: as §1
# T8 sequence (Q9P289 whole entry): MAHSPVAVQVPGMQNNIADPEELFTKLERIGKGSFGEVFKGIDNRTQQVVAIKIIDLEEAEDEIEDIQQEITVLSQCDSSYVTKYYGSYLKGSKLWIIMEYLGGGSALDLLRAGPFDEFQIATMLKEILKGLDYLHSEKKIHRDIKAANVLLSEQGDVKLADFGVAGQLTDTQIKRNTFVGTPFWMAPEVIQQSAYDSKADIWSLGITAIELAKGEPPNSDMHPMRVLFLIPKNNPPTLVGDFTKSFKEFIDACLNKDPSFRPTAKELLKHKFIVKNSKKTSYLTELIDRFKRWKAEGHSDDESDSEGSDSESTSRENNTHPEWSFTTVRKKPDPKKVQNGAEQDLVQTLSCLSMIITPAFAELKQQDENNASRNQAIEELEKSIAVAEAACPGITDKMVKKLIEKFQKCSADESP
# T22 sequence (P15056 whole entry): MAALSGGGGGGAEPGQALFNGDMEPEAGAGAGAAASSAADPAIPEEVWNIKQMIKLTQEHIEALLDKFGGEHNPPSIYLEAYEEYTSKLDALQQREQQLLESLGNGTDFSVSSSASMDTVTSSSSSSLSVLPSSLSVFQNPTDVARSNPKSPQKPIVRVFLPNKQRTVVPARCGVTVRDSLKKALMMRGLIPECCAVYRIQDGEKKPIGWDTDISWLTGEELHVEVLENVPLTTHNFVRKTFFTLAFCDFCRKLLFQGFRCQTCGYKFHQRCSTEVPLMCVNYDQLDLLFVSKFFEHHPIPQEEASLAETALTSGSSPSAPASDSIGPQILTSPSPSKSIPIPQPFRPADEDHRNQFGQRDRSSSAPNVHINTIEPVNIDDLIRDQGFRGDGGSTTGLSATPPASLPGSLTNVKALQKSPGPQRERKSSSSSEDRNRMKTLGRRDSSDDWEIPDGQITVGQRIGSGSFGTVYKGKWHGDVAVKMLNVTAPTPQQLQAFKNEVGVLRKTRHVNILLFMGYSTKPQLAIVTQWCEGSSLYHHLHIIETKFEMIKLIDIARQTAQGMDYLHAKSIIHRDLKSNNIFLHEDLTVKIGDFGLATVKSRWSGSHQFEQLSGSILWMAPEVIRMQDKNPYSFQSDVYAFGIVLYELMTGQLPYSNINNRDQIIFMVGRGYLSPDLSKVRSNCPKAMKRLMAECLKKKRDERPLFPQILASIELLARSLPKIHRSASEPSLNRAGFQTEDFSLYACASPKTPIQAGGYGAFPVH
# T16 sequence (Q13237 whole entry): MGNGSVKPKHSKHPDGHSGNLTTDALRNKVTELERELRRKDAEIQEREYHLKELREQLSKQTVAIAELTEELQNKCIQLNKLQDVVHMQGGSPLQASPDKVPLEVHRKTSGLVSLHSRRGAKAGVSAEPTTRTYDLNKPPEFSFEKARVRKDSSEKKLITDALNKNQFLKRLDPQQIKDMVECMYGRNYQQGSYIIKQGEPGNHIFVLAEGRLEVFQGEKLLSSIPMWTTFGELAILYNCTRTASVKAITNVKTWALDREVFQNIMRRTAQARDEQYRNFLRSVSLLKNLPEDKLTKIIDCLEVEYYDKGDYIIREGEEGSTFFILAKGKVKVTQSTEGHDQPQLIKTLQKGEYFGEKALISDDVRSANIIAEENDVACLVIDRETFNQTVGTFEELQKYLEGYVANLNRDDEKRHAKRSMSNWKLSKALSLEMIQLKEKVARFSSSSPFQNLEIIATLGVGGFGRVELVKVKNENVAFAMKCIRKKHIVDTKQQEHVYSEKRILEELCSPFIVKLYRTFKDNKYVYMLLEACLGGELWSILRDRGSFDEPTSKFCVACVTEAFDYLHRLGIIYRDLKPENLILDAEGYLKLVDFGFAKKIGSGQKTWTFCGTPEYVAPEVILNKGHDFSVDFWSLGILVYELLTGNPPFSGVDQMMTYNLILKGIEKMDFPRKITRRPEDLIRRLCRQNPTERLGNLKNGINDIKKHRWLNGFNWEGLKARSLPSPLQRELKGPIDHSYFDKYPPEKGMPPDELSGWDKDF
# T4 sequence (Q9UM73 whole entry, looked up): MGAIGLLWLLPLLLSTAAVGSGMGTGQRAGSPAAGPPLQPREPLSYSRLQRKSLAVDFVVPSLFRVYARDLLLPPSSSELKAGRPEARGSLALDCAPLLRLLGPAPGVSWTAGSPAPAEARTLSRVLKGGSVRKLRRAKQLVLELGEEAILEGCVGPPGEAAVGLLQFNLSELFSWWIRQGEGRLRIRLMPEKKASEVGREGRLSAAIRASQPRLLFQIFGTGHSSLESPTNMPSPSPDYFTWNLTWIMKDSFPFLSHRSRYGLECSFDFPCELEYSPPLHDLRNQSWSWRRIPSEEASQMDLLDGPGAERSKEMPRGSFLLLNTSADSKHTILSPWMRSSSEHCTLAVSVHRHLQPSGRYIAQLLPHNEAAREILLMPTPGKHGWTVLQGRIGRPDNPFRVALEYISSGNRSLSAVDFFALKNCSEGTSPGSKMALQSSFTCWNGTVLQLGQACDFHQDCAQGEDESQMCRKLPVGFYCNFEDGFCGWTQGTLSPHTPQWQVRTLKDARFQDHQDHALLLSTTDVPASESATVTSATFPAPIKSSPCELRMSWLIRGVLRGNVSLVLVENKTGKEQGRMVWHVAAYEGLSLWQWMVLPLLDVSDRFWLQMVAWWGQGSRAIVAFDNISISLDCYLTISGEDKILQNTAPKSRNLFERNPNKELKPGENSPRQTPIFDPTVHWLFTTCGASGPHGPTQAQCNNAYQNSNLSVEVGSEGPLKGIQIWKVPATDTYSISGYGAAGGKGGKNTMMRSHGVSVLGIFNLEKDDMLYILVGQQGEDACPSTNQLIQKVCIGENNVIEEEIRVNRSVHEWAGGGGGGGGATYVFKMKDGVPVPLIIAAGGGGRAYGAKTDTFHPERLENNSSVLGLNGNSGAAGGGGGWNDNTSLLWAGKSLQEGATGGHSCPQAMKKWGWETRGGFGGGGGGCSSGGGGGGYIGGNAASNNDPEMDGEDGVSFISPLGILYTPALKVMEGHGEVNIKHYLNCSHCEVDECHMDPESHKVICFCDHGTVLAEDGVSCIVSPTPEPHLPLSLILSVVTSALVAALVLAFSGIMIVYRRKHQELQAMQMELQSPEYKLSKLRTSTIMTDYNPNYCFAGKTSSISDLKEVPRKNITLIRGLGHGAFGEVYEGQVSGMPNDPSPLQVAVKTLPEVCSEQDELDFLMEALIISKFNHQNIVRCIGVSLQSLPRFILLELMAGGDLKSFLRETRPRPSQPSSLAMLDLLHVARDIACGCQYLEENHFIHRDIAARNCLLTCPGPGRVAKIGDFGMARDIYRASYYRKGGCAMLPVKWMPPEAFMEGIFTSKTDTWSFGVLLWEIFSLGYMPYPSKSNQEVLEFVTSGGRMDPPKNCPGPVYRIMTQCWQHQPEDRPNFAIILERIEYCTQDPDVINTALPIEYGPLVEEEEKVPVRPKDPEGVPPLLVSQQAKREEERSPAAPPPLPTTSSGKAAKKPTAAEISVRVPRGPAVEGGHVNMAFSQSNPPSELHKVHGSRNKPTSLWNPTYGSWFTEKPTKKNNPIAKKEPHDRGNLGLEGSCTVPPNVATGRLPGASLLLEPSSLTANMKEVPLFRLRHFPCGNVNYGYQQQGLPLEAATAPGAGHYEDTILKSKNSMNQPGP
# T34 sequence (Q99759 whole entry): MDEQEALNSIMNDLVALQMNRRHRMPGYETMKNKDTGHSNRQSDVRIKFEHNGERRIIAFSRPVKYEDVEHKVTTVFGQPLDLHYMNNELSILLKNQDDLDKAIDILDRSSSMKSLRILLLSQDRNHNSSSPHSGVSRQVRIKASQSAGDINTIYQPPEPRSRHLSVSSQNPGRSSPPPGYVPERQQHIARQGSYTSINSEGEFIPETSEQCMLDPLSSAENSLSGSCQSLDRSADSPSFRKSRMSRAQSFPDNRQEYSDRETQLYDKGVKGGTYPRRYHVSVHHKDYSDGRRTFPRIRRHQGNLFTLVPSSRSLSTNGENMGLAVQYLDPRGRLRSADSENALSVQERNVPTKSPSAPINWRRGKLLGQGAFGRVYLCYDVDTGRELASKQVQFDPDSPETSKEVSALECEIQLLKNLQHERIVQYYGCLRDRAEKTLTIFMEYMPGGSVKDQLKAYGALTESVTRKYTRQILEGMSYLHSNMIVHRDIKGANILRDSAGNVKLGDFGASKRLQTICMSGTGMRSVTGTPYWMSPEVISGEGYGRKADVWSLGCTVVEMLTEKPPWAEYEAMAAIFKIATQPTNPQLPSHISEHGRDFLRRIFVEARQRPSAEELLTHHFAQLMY
# T18 sequence (P41279 whole entry): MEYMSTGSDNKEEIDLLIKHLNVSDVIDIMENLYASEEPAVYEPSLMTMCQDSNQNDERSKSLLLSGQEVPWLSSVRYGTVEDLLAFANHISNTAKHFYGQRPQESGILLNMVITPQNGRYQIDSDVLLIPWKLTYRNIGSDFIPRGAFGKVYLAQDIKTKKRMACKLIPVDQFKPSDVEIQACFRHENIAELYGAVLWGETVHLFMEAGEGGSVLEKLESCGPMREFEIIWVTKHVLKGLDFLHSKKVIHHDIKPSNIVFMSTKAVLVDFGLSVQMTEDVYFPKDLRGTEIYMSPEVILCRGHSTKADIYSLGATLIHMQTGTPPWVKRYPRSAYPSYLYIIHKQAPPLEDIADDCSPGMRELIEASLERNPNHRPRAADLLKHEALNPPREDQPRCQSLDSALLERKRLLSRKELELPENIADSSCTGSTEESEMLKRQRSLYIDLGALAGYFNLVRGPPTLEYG
# T3 sequence (O43318 with tags, fused parts or gaps limits assumed): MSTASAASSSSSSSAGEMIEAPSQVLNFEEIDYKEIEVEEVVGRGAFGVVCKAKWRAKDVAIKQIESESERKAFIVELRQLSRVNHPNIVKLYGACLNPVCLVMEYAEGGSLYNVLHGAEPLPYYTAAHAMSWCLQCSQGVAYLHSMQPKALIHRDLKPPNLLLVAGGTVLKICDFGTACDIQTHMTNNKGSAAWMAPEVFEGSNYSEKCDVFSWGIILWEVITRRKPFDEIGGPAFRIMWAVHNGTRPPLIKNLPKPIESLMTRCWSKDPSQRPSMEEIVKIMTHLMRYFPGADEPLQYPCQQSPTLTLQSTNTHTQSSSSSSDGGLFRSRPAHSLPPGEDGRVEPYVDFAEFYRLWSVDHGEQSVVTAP
structure (smiles),measurement,setting,value
"[H]/N=C1/NC(=O)C(=Cc2ccc3c(c2)CCO3)S1 [CaNDY, (Z)-5-[(2,3-dihydrobenzofuran-5-yl)methylene]-2-iminothiazolidin-4-one]",%Activity,[1],100.8%
same,remaining activity at 1 µM,[2],105%
same,remaining activity at 1 µM,[3],104%
same,remaining activity at 1 µM,[4],99.2%
same,remaining activity at 1 µM,[5],82.5%
same,%Activity,[6],100.2%
same,remaining activity at 1 µM,[7],101%
same,remaining activity at 1 µM,[8],103%
same,remaining activity at 1 µM,[9],102%
same,remaining activity at 1 µM,[10],95.6%
same,%Activity,[11],100.9%
same,remaining activity at 1 µM,[12],95.5%
same,remaining activity at 1 µM,[13],30.9%
same,remaining activity at 1 µM,[14],91.1%
same,remaining activity at 1 µM,[15],97.5%
same,remaining activity at 1 µM,[16],71.1%
same,remaining activity at 1 µM,[17],91.8%
same,remaining activity at 1 µM,[18],72.9%
same,%Activity,[19],99.8%
same,remaining activity at 1 µM,[20],114%
same,remaining activity at 1 µM,[21],101%
same,remaining activity at 1 µM,[22],108%
same,remaining activity at 1 µM,[23],65.1%
same,%Activity,[24],97.7%
same,remaining activity at 1 µM,[25],74.1%
same,remaining activity at 1 µM,[26],91.4%
same,remaining activity at 1 µM,[27],104%
same,%Activity,[28],98.1%
same,remaining activity at 1 µM,[29],104%
same,remaining activity at 1 µM,[30],22.6%
same,remaining activity at 1 µM,[31],94.6%
same,remaining activity at 1 µM,[32],41.4%
same,remaining activity at 1 µM,[33],68%
same,remaining activity at 1 µM,[34],104%
same,remaining activity at 1 µM,[35],102%
same,remaining activity at 1 µM,[36],97.8%

# From paper PMC4522657, “Identification of a DYRK1A Inhibitor that Induces Degradation of the Target Kinase using Co-chaperone CDC37 fused with Luciferase nanoKAZ” (Scientific Reports, 2015)
